Reference: ChEMBL document CHEMBL1201862, “PubChem BioAssay data set” (2004)
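Where inhibition never reached the appropriate level, the endpoint shown equals the highest concentration tested. Otherwise, values were interpolated linearly from a five-concentration, 48-hour dose response in 96-well plates. GI50 is the concentration that inhibits growth by half.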 Activity calls are given as the source filed them. Rule as the data show it: active = GI50 up to about 1.1 µM and inactive = higher. Non-standard residues stand in square brackets, D forms with d. Residues, ends and D or L forms follow the SMILES beside them. ξ: configuration not given here. *: point of attachment. ξNMeF = CNC(Cc1ccccc1)C(=O)O; NMeV = CN[C@H](C(=O)O)C(C)C; Boc = CC(C)(C)OC(=O)*; OBn = c1ccc(CO*)cc1

Tests used:
Assay in all cases: NCI tumour cell line growth inhibition, 48 h
[1] = system: CCRF-CEM
[2] = system: HL-60
[3] = system: HOP-62
[4] = system: IGROV-1
[5] = system: LXFL 529
[6] = system: M14
[7] = system: MOLT-4
[8] = system: OVCAR-3
[9] = system: OVCAR-4
[10] = system: OVCAR-5
[11] = system: SR
[12] = system: UO-31
[13] = system: XF498
[14] = system: HOP-18
[15] = system: SNB-78
[16] = system: NCI/ADR-RES
[17] = system: DU-145
[18] = system: Hs-578T
[19] = system: MDA-MB-435
[20] = system: MDA-N

| Compound | GI50 [1] | GI50 [2] | GI50 [3] | GI50 [4] | GI50 [5] | GI50 [6] | GI50 [7] | GI50 [8] | GI50 [9] | GI50 [10] | GI50 [11] | GI50 [12] | GI50 [13] | GI50 [14] | GI50 [15] | GI50 [16] | GI50 [17] | GI50 [18] | GI50 [19] | GI50 [20] |
| --- | --- | --- | --- | --- | --- | --- | --- | --- | --- | --- | --- | --- | --- | --- | --- | --- | --- | --- | --- | --- |
| COP(=O)(OC)C(=O)N1N(c2ccc([N+](=O)[O-])cc2)C(=O)C(C)NC1(NNc1ccc([N+](=O)[O-])cc1)P(=O)(OC)OC (stereo unspecified) | > 100 µM (inactive) | 64.6 µM (inactive) | > 100 µM (inactive) | > 100 µM (inactive) | 57.8 µM (inactive) | > 100 µM (inactive) | > 100 µM (inactive) | > 100 µM (inactive) | > 100 µM (inactive) | > 100 µM (inactive) | > 100 µM (inactive) | > 100 µM (inactive) | > 100 µM (inactive) | – | – | – | – | – | – | – |
| CN1C(=O)CC2(C)c3cc(C=O)ccc3N(C)C12 (stereo unspecified) | > 100 µM (inactive) | – | > 100 µM (inactive) | > 100 µM (inactive) | > 100 µM (inactive) | > 100 µM (inactive) | > 100 µM (inactive) | > 100 µM (inactive) | > 100 µM (inactive) | > 100 µM (inactive) | – | > 100 µM (inactive) | > 100 µM (inactive) | > 100 µM (inactive) | > 100 µM (inactive) | – | – | – | – | – |
| COc1nc(NC2OCC(OC(C)=O)C(OC(C)=O)C2OC(C)=O)c(/N=C(\C)C(C)=O)c(=O)n1C (stereo unspecified) | > 100 µM (inactive) | > 100 µM (inactive) | – | > 100 µM (inactive) | – | > 100 µM (inactive) | > 100 µM (inactive) | – | > 100 µM (inactive) | > 100 µM (inactive) | > 100 µM (inactive) | > 100 µM (inactive) | > 100 µM (inactive) | > 100 µM (inactive) | > 100 µM (inactive) | – | – | – | – | – |
| CCN(CC)CCNc1ccc2ncn3c4ccccc4c(=O)c1c23 | 4.1 µM (inactive) | 5.74 µM (inactive) | 5.81 µM (inactive) | 3.83 µM (inactive) | 3.77 µM (inactive) | 4.91 µM (inactive) | 2 µM (inactive) | 12.8 µM (inactive) | 2.96 µM (inactive) | 7.93 µM (inactive) | 1.63 µM (inactive) | 2.08 µM (inactive) | – | 10 µM (inactive) | 3.03 µM (inactive) | – | – | – | – | – |
| O=c1cc(/C=C/c2ccccc2)c2ccc(O/C(=C\c3ccccc3)c3nc4ccccc4c(=O)o3)cc2o1 | 16.9 µM (inactive) | 12.7 µM (inactive) | 28 µM (inactive) | 30.1 µM (inactive) | 14.8 µM (inactive) | 18.1 µM (inactive) | 17.6 µM (inactive) | 15 µM (inactive) | 27.2 µM (inactive) | 44.9 µM (inactive) | – | – | 14.9 µM (inactive) | – | 19.5 µM (inactive) | – | – | – | – | – |
| O=C(N/C(=C\c1ccccc1Cl)c1nc2ccccc2[nH]1)c1ccccc1 | 30.4 µM (inactive) | 25.7 µM (inactive) | – | 25.1 µM (inactive) | 21.9 µM (inactive) | 19.8 µM (inactive) | 20.6 µM (inactive) | 29.7 µM (inactive) | 29 µM (inactive) | 30.8 µM (inactive) | 23.3 µM (inactive) | 11.2 µM (inactive) | 23.8 µM (inactive) | – | 45.6 µM (inactive) | – | – | – | – | – |
| CCOC(=O)NC(=O)c1cn(CCCCCOC(=O)NCCCCCCNC(=O)OCCCCCn2cc(C(=O)NC(=O)OCC)c(=O)[nH]c2=O)c(=O)[nH]c1=O | > 100 µM (inactive) | > 100 µM (inactive) | > 100 µM (inactive) | > 100 µM (inactive) | > 100 µM (inactive) | 31 µM (inactive) | > 100 µM (inactive) | > 100 µM (inactive) | > 100 µM (inactive) | – | – | > 100 µM (inactive) | – | > 100 µM (inactive) | > 100 µM (inactive) | – | – | – | – | – |
| Cc1cc2c(c(C(N)=O)c1C)-c1cccc(F)c1C2=O | > 100 µM (inactive) | – | > 100 µM (inactive) | > 100 µM (inactive) | > 100 µM (inactive) | > 100 µM (inactive) | > 100 µM (inactive) | > 100 µM (inactive) | > 100 µM (inactive) | > 100 µM (inactive) | – | 40.9 µM (inactive) | 57.3 µM (inactive) | – | > 100 µM (inactive) | – | – | – | – | – |
| Cc1nc2nn(Cc3ccccc3)cc2c(=O)o1 | > 100 µM (inactive) | > 100 µM (inactive) | > 100 µM (inactive) | > 100 µM (inactive) | > 100 µM (inactive) | – | > 100 µM (inactive) | > 100 µM (inactive) | – | > 100 µM (inactive) | – | > 100 µM (inactive) | 74.5 µM (inactive) | – | > 100 µM (inactive) | – | – | – | – | – |
| COP1(=O)Oc2ccccc2C(=O)C(C(F)(F)F)(C(F)(F)F)O1 (stereo unspecified) | > 100 µM (inactive) | > 100 µM (inactive) | > 100 µM (inactive) | > 100 µM (inactive) | > 100 µM (inactive) | > 100 µM (inactive) | > 100 µM (inactive) | – | > 100 µM (inactive) | > 100 µM (inactive) | > 100 µM (inactive) | > 100 µM (inactive) | 85.9 µM (inactive) | – | – | – | – | – | – | – |
| C[C@]12CC[C@H](OC3CCCCO3)CC1=CC[C@@H]1C2CC[C@]2(C)/C(=N/O)CCC12 (stereo partly specified) | – | – | > 100 µM (inactive) | > 100 µM (inactive) | 16.6 µM (inactive) | 21.4 µM (inactive) | 10.9 µM (inactive) | 17 µM (inactive) | 16.4 µM (inactive) | 19.4 µM (inactive) | – | 39.1 µM (inactive) | 40.6 µM (inactive) | 16 µM (inactive) | 20.7 µM (inactive) | – | – | – | – | – |
| COC(=O)C[C@](O)(CCC(C)(C)O)C(=O)O[C@@H]1C(OC)=C[C@]23CCCN2CCc2cc4c(cc2[C@H]13)OCO4 [HARRINGTONINE] | 0.0508 µM (active) | 0.0403 µM (active) | 0.166 µM (active) | 0.0505 µM (active) | – | – | 0.0333 µM (active) | 0.0598 µM (active) | 0.0785 µM (active) | 0.233 µM (active) | – | 1.7 µM (inactive) | < 0.01 µM (active) | 0.229 µM (active) | 0.256 µM (active) | 7.74 µM (inactive) | – | – | – | – |
| CC(C)[C@@H](C(=O)N(C)[C@H](C(=O)N1CCC[C@H]1C(=O)OCc1ccccc1)C(C)C)N(C)C(=O)C(Cc1ccccc1)N(C)C(=O)[C@H](NC(=O)OC(C)(C)C)C(C)C (stereo partly specified) (Boc-[dV][ξNMeF][NMeV][NMeV]P-OBn) | > 31.6 µM (inactive) | 19 µM (inactive) | > 31.6 µM (inactive) | > 31.6 µM (inactive) | 42.9 µM (inactive) | – | 10.7 µM (inactive) | > 34.5 µM (inactive) | – | > 31.6 µM (inactive) | 19.7 µM (inactive) | > 31.6 µM (inactive) | 13.4 µM (inactive) | > 72.6 µM (inactive) | – | – | – | – | – | – |
| Brc1ccc2c(c1)C1C(CO2)C(c2ccccc2)=NN1c1ccccc1 (stereo unspecified) | > 100 µM (inactive) | 90.8 µM (inactive) | > 100 µM (inactive) | > 100 µM (inactive) | > 100 µM (inactive) | – | > 100 µM (inactive) | > 100 µM (inactive) | – | > 100 µM (inactive) | – | > 100 µM (inactive) | > 100 µM (inactive) | 60 µM (inactive) | > 100 µM (inactive) | – | – | – | – | – |
| CN1Nc2ccccc2CC1=O | > 100 µM (inactive) | – | > 100 µM (inactive) | > 100 µM (inactive) | – | > 100 µM (inactive) | – | > 100 µM (inactive) | > 100 µM (inactive) | > 100 µM (inactive) | – | > 100 µM (inactive) | > 100 µM (inactive) | > 100 µM (inactive) | > 100 µM (inactive) | – | – | – | – | – |
| O=C(CC(=O)c1ccccc1NC1=Cc2ccccc2C(=O)C1=O)C(=O)NC1=C(Cl)C(=O)c2ccccc2C1=O | 2.03 µM (inactive) | 0.605 µM (active) | 4.79 µM (inactive) | 5.79 µM (inactive) | 2.46 µM (inactive) | 1.47 µM (inactive) | 1.24 µM (inactive) | 1.51 µM (inactive) | 3.36 µM (inactive) | 5.98 µM (inactive) | 1.44 µM (inactive) | 6.89 µM (inactive) | 2.49 µM (inactive) | – | 2.16 µM (inactive) | 3 µM (inactive) | 5.71 µM (inactive) | 1.9 µM (inactive) | 1.85 µM (inactive) | 1.75 µM (inactive) |
| COC(=O)C(=O)C(C(=O)C(=O)Nc1ccc(Cl)cc1C)c1nc2ccc(C(=O)c3ccccc3)cc2nc1O (stereo unspecified) | 50.6 µM (inactive) | 96.6 µM (inactive) | > 100 µM (inactive) | > 100 µM (inactive) | 65.2 µM (inactive) | > 100 µM (inactive) | 51.1 µM (inactive) | > 100 µM (inactive) | > 100 µM (inactive) | 83 µM (inactive) | 43.5 µM (inactive) | 49.1 µM (inactive) | – | > 100 µM (inactive) | > 100 µM (inactive) | – | – | – | – | – |
| Cc1ccc(-c2cc(=O)c3cc(C)c(C)c(C(=O)O)c3o2)cc1C | > 100 µM (inactive) | > 100 µM (inactive) | > 100 µM (inactive) | > 100 µM (inactive) | > 100 µM (inactive) | > 100 µM (inactive) | > 100 µM (inactive) | > 100 µM (inactive) | > 100 µM (inactive) | > 100 µM (inactive) | > 100 µM (inactive) | > 100 µM (inactive) | – | > 100 µM (inactive) | > 100 µM (inactive) | – | – | – | – | – |
| COC1OCC(O)C(NC(=O)N(C)N=O)C1O (stereo unspecified) | > 100 µM (inactive) | – | > 100 µM (inactive) | > 100 µM (inactive) | – | – | > 100 µM (inactive) | > 100 µM (inactive) | > 100 µM (inactive) | > 100 µM (inactive) | – | > 100 µM (inactive) | > 100 µM (inactive) | > 100 µM (inactive) | > 100 µM (inactive) | > 100 µM (inactive) | – | – | – | – |
| CC(=O)OCC1OC(n2c(-c3ccc(C)cc3)cc(-c3ccccc3)c(C#N)c2=O)C(OC(C)=O)C(OC(C)=O)C1OC(C)=O (stereo unspecified) | > 100 µM (inactive) | 48.9 µM (inactive) | > 100 µM (inactive) | > 100 µM (inactive) | > 100 µM (inactive) | > 100 µM (inactive) | > 100 µM (inactive) | > 100 µM (inactive) | > 100 µM (inactive) | > 100 µM (inactive) | – | > 100 µM (inactive) | 86.9 µM (inactive) | – | > 100 µM (inactive) | – | – | – | – | – |
